Measured values from ChEMBL document CHEMBL1146354, “Synthesis, cytotoxicity, and DNA topoisomerase II inhibitory activity of benzofuroquinolinediones” (Bioorg Med Chem, 2007).

Tests used:
SK-OV-3 = assay: Cytotoxicity against human SK-OV-3 cells by SRB assay; type: functional, cell-based
SNU-638 = assay: Cytotoxicity against human SNU638 cells by SRB assay; type: functional, cell-based
[1] = biological target: T1, DNA topoisomerase 1 (Homo sapiens) (UniProt P11387); assay: Inhibition of human topoisomerase 1-mediated DNA relaxation activity at 5 uM after 10 mins relative to control
T1 sequence (whole entry): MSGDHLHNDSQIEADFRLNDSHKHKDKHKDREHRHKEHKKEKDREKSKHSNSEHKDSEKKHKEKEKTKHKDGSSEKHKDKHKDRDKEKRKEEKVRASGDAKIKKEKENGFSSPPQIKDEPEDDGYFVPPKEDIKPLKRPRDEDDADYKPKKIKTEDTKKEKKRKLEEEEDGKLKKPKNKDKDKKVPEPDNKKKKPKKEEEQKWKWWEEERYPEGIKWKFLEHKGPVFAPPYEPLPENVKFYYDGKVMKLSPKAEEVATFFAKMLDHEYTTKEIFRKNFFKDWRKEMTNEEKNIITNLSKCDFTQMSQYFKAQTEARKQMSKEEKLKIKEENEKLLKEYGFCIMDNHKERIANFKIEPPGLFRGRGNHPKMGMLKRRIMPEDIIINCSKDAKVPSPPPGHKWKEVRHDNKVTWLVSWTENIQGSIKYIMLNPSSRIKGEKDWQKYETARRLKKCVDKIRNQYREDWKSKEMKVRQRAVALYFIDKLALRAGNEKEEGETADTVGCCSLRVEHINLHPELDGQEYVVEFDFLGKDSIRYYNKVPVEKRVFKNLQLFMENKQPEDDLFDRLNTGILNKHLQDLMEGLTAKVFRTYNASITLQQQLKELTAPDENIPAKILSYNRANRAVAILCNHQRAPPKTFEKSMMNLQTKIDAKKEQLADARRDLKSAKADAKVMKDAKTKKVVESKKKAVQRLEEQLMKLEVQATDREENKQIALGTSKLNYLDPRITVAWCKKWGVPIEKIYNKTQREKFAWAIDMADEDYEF

XF498 = assay: Cytotoxicity against human XF498 cells by SRB assay; type: functional, cell-based
SK-MEL-2 = assay: Cytotoxicity against human SK-MEL-2 cells by SRB assay; type: functional, cell-based
A549 = assay: Cytotoxicity against human A549 cells by SRB assay; type: functional, cell-based
HL-60 = assay: Cytotoxicity against human HL60 cells by SRB assay; type: functional, cell-based
HT-1080 = assay: Cytotoxicity against human HT1080 cells by SRB assay; type: functional, cell-based
HCT-116 = assay: Cytotoxicity against human HCT116 cells by SRB assay; type: functional, cell-based
Homo sapiens [2] = species: Homo sapiens; assay: Inhibition of human topoisomerase 2-mediated KDNA decatenation activity at 5 uM after 10 mins relative to control
[3] = Inhibition of human topoisomerase 2 […]
DNA topoisomerase 1 = biological target: T2, DNA topoisomerase 1 (Homo sapiens, UniProt P11387); assay: Inhibition of human topoisomerase 1 […]
T2 sequence (P11387 whole entry): T1 sequence (whole entry)

Homo sapiens [4] = species: Homo sapiens; assay: Inhibition of human topoisomerase 2-mediated KDNA decatenation activity at 200 uM after 10 mins relative to control

inhibition [1] [%]	inhibition (Homo sapiens [2]) [%]	IC50 [3] [nM]	IC50 (DNA topoisomerase 1) [nM]	inhibition (Homo sapiens [4]) [%]	SMILES	IC50 (SK-OV-3) [nM]	IC50 (SNU-638) [nM]	IC50 (XF498) [nM]	IC50 (SK-MEL-2) [nM]	IC50 (A549) [nM]	IC50 (HL-60) [nM]	IC50 (HT-1080) [nM]	IC50 (HCT-116) [nM]
0	67	–	–	–	CC(COc1ccc2c3c(oc2c1)C(=O)c1ncccc1C3=O)N(C)C (centres undefined)	80	110	100	90	20	180	60	70
14	100	1190	42000	–	CC(COc1ccc2c3c(oc2c1)C(=O)c1ccccc1C3=O)N(C)C (centres undefined)	19000	840	4690	2150	210	390	340	2200
10	36	–	–	–	CC(C)N(CCOc1ccc2c3c(oc2c1)C(=O)c1ccccc1C3=O)C(C)C	3550	2570	3170	1530	2010	1110	1020	1390
12	91	–	–	–	CCN(CC)CCOc1ccc2c3c(oc2c1)C(=O)c1ccccc1C3=O	> 20000	3110	> 20000	> 20000	1090	650	2190	1680
0	68	–	–	–	CC(COc1cc2oc3c(c2cc1Cl)C(=O)c1ccccc1C3=O)N(C)C (centres undefined)	650	1140	550	500	450	630	650	340
12	84	–	59500	–	CC(CN(C)C)Oc1ccc2c3c(oc2c1)C(=O)c1ccccc1C3=O (centres undefined)	2260	880	1750	1520	370	250	270	270

The next lines start with the compound.

SMILES	inhibition [1] [%]	inhibition (Homo sapiens [2]) [%]	IC50 [3] [nM]	IC50 (DNA topoisomerase 1) [nM]	inhibition (Homo sapiens [4]) [%]	IC50 (SK-OV-3) [nM]	IC50 (SNU-638) [nM]	IC50 (XF498) [nM]	IC50 (SK-MEL-2) [nM]	IC50 (A549) [nM]	IC50 (HL-60) [nM]	IC50 (HT-1080) [nM]	IC50 (HCT-116) [nM]
CC(C)N(CCOc1cc2oc3c(c2cc1Cl)C(=O)c1cccnc1C3=O)C(C)C	0	35	–	–	–	750	530	910	730	180	700	220	410
CC(CN(C)C)Oc1cc2oc3c(c2cc1Cl)C(=O)c1ccccc1C3=O (centres undefined)	6	88	–	–	–	550	100	550	340	620	670	490	420
COc1cccc2c1C(=O)c1c(O)c3c(c(O)c1C2=O)C[C@@](O)(C(=O)CO)C[C@@H]3O[C@H]1C[C@H](N)[C@H](O)[C@H](C)O1 [DOXORUBICIN]	–	78	2670	–	–	290	60	40	70	150	40	60	620
CCN(CC)CCOc1cc2oc3c(c2cc1Cl)C(=O)c1ccccc1C3=O	19	50	–	–	–	> 20000	2770	> 20000	5730	1590	2270	2730	1520
CC(COc1cc2oc3c(c2cc1Cl)C(=O)c1cccnc1C3=O)N(C)C (centres undefined)	0	59	–	–	–	150	180	140	140	90	220	110	140
CC(C)N(CCOc1ccc2c3c(oc2c1)C(=O)c1ncccc1C3=O)C(C)C	0	71	–	–	–	1020	450	940	940	370	80	180	180
CC(C)N(CCOc1cc2oc3c(c2cc1Cl)C(=O)c1ccccc1C3=O)C(C)C	14	59	–	–	–	> 20000	> 20000	> 20000	> 20000	> 20000	> 20000	> 20000	> 20000
CC(CN(C)C)Oc1cc2oc3c(c2cc1Cl)C(=O)c1cccnc1C3=O (centres undefined)	0	11	–	–	–	150	100	170	150	100	60	100	130
COc1cc([C@@H]2c3cc4c(cc3[C@@H](O[C@@H]3O[C@@H]5CO[C@@H](C)O[C@H]5[C@H](O)[C@H]3O)[C@H]3COC(=O)[C@H]23)OCO4)cc(OC)c1O [ETOPOSIDE]	–	–	78400	–	89	–	–	–	–	–	370	–	1870
CCN(CC)CCOc1ccc2c3c(oc2c1)C(=O)c1ncccc1C3=O	0	100	680	64300	–	270	140	140	160	50	250	70	60
CC(CN(C)C)Oc1ccc2c3c(oc2c1)C(=O)c1ncccc1C3=O (centres undefined)	0	24	–	–	–	150	140	120	150	60	90	170	80
CCN(CC)CCOc1cc2oc3c(c2cc1Cl)C(=O)c1cccnc1C3=O	0	47	–	–	–	250	140	400	240	90	310	150	130
